Reference: PMC9455338, “Design, synthesis, and biological evaluation of potent FAK-degrading PROTACs” (Journal of Enzyme Inhibition and Medicinal Chemistry, 2022)

Assays:
FAK [1] = target: T1, FAK (Homo sapiens, UniProt Q05397); assay: biochemical; design: HTRF KinEASE-TK kinase assay with purified FAK, inhibition of substrate phosphorylation; conditions: for inhibition at 0.1 µM: read-out: FAK inhibition (%)^a / 0.1 μM; for inhibition at 0.5 µM: read-out: FAK inhibition (%)^a / 0.5 μM
T1 construct: gene PTK2
T1 sequence (Q05397 2-1052): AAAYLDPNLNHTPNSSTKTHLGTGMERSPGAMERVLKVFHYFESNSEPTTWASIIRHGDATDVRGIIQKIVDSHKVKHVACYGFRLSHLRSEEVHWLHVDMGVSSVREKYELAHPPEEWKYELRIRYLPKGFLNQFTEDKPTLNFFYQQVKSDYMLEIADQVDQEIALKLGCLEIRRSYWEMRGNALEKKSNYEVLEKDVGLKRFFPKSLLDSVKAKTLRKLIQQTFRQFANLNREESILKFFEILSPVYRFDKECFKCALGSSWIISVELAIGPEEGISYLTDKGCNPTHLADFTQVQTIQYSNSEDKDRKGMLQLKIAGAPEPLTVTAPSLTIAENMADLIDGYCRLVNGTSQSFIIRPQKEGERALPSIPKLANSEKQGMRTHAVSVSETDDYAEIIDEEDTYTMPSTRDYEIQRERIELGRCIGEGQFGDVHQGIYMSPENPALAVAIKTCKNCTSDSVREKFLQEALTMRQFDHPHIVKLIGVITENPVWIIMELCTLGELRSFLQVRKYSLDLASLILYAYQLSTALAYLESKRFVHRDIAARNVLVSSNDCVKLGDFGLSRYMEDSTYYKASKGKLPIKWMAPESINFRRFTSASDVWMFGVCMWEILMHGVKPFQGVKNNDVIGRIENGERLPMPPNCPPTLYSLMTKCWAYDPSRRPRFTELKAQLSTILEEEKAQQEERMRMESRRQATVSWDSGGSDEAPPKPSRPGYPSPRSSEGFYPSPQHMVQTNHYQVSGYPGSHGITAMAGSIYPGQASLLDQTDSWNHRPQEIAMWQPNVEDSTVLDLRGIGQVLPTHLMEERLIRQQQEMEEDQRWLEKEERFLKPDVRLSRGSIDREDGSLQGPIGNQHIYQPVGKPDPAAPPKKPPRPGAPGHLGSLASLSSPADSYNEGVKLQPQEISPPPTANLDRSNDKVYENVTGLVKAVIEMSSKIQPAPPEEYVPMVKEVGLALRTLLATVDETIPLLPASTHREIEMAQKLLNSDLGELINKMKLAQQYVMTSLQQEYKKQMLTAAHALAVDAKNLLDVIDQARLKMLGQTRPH
Description: The FAK kinase assay was performed using the HTRF® KinEASE™-TK kit (Cisbio Bioassays, France) in white 384-well small volume plates with a total working volume of 20 μL. Purified FAK enzyme was purchased from Carna Biosciences (Japan). Compounds were diluted step-by-step from a concentrated stock of 8 mM in 100% DMSO and with serial kinase reaction buffer dilutions. The IC50 measurements were performed in replicates. […] The assay plates were incubated at 30 °C for 50 min and reactions were terminated by adding 10 μL of mix 2 (Sa-XL665 + TK-Antibody-Cryptate). After a final incubation (60 min at room temperature), HTRF signals were obtained by reading plates using an Infinite® F500 microplate reader (Tecan, Switzerland). […] For IC50 measurements, values were normalised and fitted with Graphpad prism 8.3.0.

FAK [2] = target: T1, FAK; assay: HTRF KinEASE-TK kinase assay, purified FAK (Carna)
FAK [3] = target: T1, FAK; assay: HTRF kinase assay, % inhibition at […]; format: biochemical

Compound | inhibition at 0.1 µM (FAK [1]) | inhibition at 0.5 µM (FAK [1]) | IC50 (FAK [2]) | inhibition at 0.1 µM (FAK [3])
CN(c1ccccc1CNc1nc(Nc2ccc(N3CCN(CCCCCCC(=O)NCCNc4cccc5c4C(=O)N(C4CCC(=O)NC4=O)C5=O)CC3)cc2)ncc1C(F)(F)F)S(C)(=O)=O (stereo not shown) [A13, N-(2-{[2–(2,6-Dioxopiperidin-3-yl)-1,3-dioxoisoindolin-4-yl]amino}ethyl)-7–(4 -{4-[(4-{[2-(N-methylmethylsulfonamido)benzyl]amino}-5-(trifluoromethyl)pyrimidin-2-yl)amino]phenyl}piperazine-1-yl)heptamide] | 84.4% | 96.9% | 26.4 nM | –
CN(c1ccccc1CNc1nc(Nc2ccc(N3CCN(CCCCC(=O)NCCNc4cccc5c4C(=O)N(C4CCC(=O)NC4=O)C5=O)CC3)cc2)ncc1C(F)(F)F)S(C)(=O)=O (stereo not shown) [A11, N-(2-{[2–(2,6-Dioxopiperidin-3-yl)-1,3-dioxoisoindolin-4-yl]amino}ethyl)-5–(4 –{4-[(4-{[2-(N-Methylmethylsulfonamido)benzyl]amino}-5-(trifluoromethyl)pyrimidin-2-yl)amino]phenyl}piperazine-1-yl)pentanamide] | – | 98.6% | – | 93.5%
CN(c1ccccc1CNc1nc(Nc2ccc(N3CCN(CCCOCCC(=O)NCCNc4cccc5c4C(=O)N(C4CCC(=O)NC4=O)C5=O)CC3)cc2)ncc1C(F)(F)F)S(C)(=O)=O (stereo not shown) [A2, N-(2-{[2–(2,6-dioxopiperidin-3-yl)-1,3-dioxoisoindolin-4-yl]amino}ethyl)-3-[3–(4-{4-[(4-{[2-(N-methylmethylsulfonamido)benzyl]amino}-5-(trifluoromethyl)pyrimidin-2-yl)amino]phenyl}piperazin-1-yl)propoxy]propanamide] | – | 98.8% | – | 89%
CN(c1ccccc1CNc1nc(Nc2ccc(N3CCN(CCCCCC(=O)NCCNc4cccc5c4C(=O)N(C4CCC(=O)NC4=O)C5=O)CC3)cc2)ncc1C(F)(F)F)S(C)(=O)=O (stereo not shown) [A12, N-(2-{[2–(2,6-Dioxopiperidin-3-yl)-1,3-dioxoisoindolin-4-yl]amino}ethyl)-6–(4-{4-[(4-{[2-(N-methylmethylsulfonamido)benzyl]amino}-5-(trifluoromethyl)pyrimidin-2-yl)amino]phenyl}piperazine-1-yl)hexanamide] | – | 98% | – | 86.1%
CN(c1ccccc1CNc1nc(Nc2ccc(N3CCN(CCOCCOCCNC(=O)CNc4cccc5c4C(=O)N(C4CCC(=O)NC4=O)C5=O)CC3)cc2)ncc1C(F)(F)F)S(C)(=O)=O (stereo not shown) [A1, 2-{[2–(2,6-Dioxopiperidin-3-yl)-1,3-dioxoisoindolin-4-yl]amino}-N-(2-{2-[2–(4-{4-[(4-{[2-(N-methylmethylsulfonamido)benzyl]amino}-5-(trifluoromethyl)pyrimidin-2-yl)amino]phenyl}piperazin-1-yl)ethoxy]ethoxy}ethyl)acetamide] | 94.9% | 98% | 22.3 nM | –

Next, values leading:

inhibition at 0.1 µM (FAK [1]) | inhibition at 0.5 µM (FAK [1]) | IC50 (FAK [2]) | inhibition at 0.1 µM (FAK [3]) | Compound
– | 98% | – | 91.2% | CN(c1ccccc1CNc1nc(Nc2ccc(N3CCN(CCCCC(=O)Nc4cccc5c4C(=O)N(C4CCC(=O)NC4=O)C5=O)CC3)cc2)ncc1C(F)(F)F)S(C)(=O)=O (stereo not shown) [A5]
88.2% | 96.8% | 24.4 nM | – | CN(c1ccccc1CNc1nc(Nc2ccc(N3CCN(CCCCCC(=O)Nc4cccc5c4C(=O)N(C4CCC(=O)NC4=O)C5=O)CC3)cc2)ncc1C(F)(F)F)S(C)(=O)=O (stereo not shown) [A6, N-(2–(2,6-Dioxopiperidin-3-yl)-1,3-dioxoisoindol-4-yl)-6–(4-{4-[(4-{[2-(N-Methylmethylsulfonamido)benzyl]amino}-5-(trifluoromethyl)pyrimidin-2-yl)amino]phenyl}piperazin-1-yl)hexanamide]
– | 95.4% | – | 87.5% | CN(c1ccccc1CNc1nc(Nc2ccc(N3CCN(CCCCCCC(=O)Nc4cccc5c4C(=O)N(C4CCC(=O)NC4=O)C5=O)CC3)cc2)ncc1C(F)(F)F)S(C)(=O)=O (stereo not shown) [A7, N-[2–(2,6-Dioxopiperidin-3-yl)-1,3-dioxoisoindol-4-yl]-7–(4-{4-[(4-{[2-(N-Methylmethylsulfonamido)benzyl]amino}-5-(trifluoromethyl)pyrimidin-2-yl)amino]phenyl}piperazin-1-yl)heptamide]
